Key:
Format in all cases: functional
Schistosoma japonicum [1] = assay: Antischistosomal activity against adult Schistosoma japonicum infected in mouse assessed as total worm reduction at 200 mg/kg, po administered 21 days after infection relative to control; parameters: scale not given: the % may be the effect or the level left
Schistosoma japonicum [2] = assay: Antischistosomal activity against adult Schistosoma japonicum assessed as worm survival at 25 uM after 72 hrs relative to control
Schistosoma japonicum [3] = assay: Antischistosomal activity against adult Schistosoma japonicum assessed as worm survival at 10 uM after 24 hrs relative to control
Schistosoma japonicum [4] = assay: Antischistosomal activity against adult Schistosoma japonicum assessed as worm survival at 10 uM after 48 hrs relative to control
Schistosoma japonicum [5] = assay: Antischistosomal activity against adult Schistosoma japonicum assessed as worm survival at 5 uM after 72 hrs relative to control
Schistosoma japonicum [6] = assay: Antischistosomal activity against adult Schistosoma japonicum assessed as worm survival at 50 uM after 48 hrs relative to control
Schistosoma japonicum [7] = assay: Antischistosomal activity against juvenile Schistosoma japonicum assessed as worm survival at 15 uM after 24 hrs relative to control
Schistosoma japonicum [8] = assay: Antischistosomal activity against juvenile Schistosoma japonicum assessed as worm survival at 5 uM after 72 hrs relative to control
Schistosoma japonicum [9] = assay: Antischistosomal activity against adult Schistosoma japonicum assessed as worm survival at 5 uM after 48 hrs relative to control
Schistosoma japonicum [10] = assay: Antischistosomal activity against juvenile Schistosoma japonicum assessed as worm survival at 50 uM after 72 hrs relative to control
Schistosoma japonicum [11] = assay: Antischistosomal activity against juvenile Schistosoma japonicum assessed as worm survival at 10 uM after 24 hrs relative to control
Schistosoma japonicum [12] = assay: Antischistosomal activity against adult Schistosoma japonicum assessed as worm survival at 10 uM after 72 hrs relative to control
Schistosoma japonicum [13] = assay: Antischistosomal activity against juvenile Schistosoma japonicum assessed as worm survival at 5 uM after 48 hrs relative to control
Schistosoma japonicum [14] = assay: Antischistosomal activity against juvenile Schistosoma japonicum assessed as worm survival at 50 uM after 48 hrs relative to control
Schistosoma japonicum [15] = assay: Antischistosomal activity against adult Schistosoma japonicum assessed as worm survival at 50 uM after 72 hrs relative to control
Schistosoma japonicum [16] = assay: Antischistosomal activity against juvenile Schistosoma japonicum assessed as worm survival at 10 uM after 72 hrs relative to control
Schistosoma japonicum [17] = assay: Antischistosomal activity against adult Schistosoma japonicum assessed as worm survival at 25 uM after 24 hrs relative to control
Schistosoma japonicum [18] = assay: Antischistosomal activity against juvenile Schistosoma japonicum assessed as worm survival at 15 uM after 72 hrs relative to control
Schistosoma japonicum [19] = assay: Antischistosomal activity against juvenile Schistosoma japonicum infected in mouse assessed as total worm reduction at 200 mg/kg, po administered 14 days after infection relative to control; parameters: scale not given: the % may be the effect or the level left
Schistosoma japonicum [20] = assay: Antischistosomal activity against adult Schistosoma japonicum assessed as worm survival at 5 uM after 24 hrs relative to control
Schistosoma japonicum [21] = assay: Antischistosomal activity against juvenile Schistosoma japonicum assessed as worm survival at 10 uM after 48 hrs relative to control
Schistosoma japonicum [22] = assay: Antischistosomal activity against juvenile Schistosoma japonicum assessed as worm survival at 50 uM after 24 hrs relative to control
Schistosoma japonicum [23] = assay: Antischistosomal activity against adult Schistosoma japonicum assessed as worm survival at 25 uM after 48 hrs relative to control
Schistosoma japonicum [24] = assay: Antischistosomal activity against juvenile Schistosoma japonicum assessed as worm survival at 5 uM after 24 hrs relative to control
Schistosoma japonicum [25] = assay: Antischistosomal activity against juvenile Schistosoma japonicum assessed as worm survival at 15 uM after 48 hrs relative to control
Schistosoma japonicum [26] = assay: Antischistosomal activity against adult Schistosoma japonicum assessed as worm survival at 50 uM after 24 hrs relative to control
Schistosoma japonicum [27] = assay: Antischistosomal activity against adult Schistosoma japonicum assessed as worm survival at 20 uM after 24 hrs relative to control
Schistosoma japonicum [28] = assay: Antischistosomal activity against juvenile Schistosoma japonicum assessed as worm survival at 20 uM after 24 hrs relative to control
Schistosoma japonicum [29] = assay: Antischistosomal activity against juvenile Schistosoma japonicum assessed as worm survival at 20 uM after 72 hrs relative to control
Schistosoma japonicum [30] = assay: Antischistosomal activity against adult Schistosoma japonicum assessed as worm survival at 20 uM after 48 hrs relative to control
Schistosoma japonicum [31] = assay: Antischistosomal activity against adult Schistosoma japonicum assessed as worm survival at 15 uM after 24 hrs relative to control
Schistosoma japonicum [32] = assay: Antischistosomal activity against juvenile Schistosoma japonicum assessed as worm survival at 25 uM after 72 hrs relative to control
Schistosoma japonicum [33] = assay: Antischistosomal activity against juvenile Schistosoma japonicum assessed as worm survival at 20 uM after 48 hrs relative to control
Schistosoma japonicum [34] = assay: Antischistosomal activity against juvenile Schistosoma japonicum assessed as worm survival at 25 uM after 48 hrs relative to control
Schistosoma japonicum [35] = assay: Antischistosomal activity against juvenile Schistosoma japonicum assessed as worm survival at 25 uM after 24 hrs relative to control
Schistosoma japonicum [36] = assay: Antischistosomal activity against adult Schistosoma japonicum assessed as worm survival at 20 uM after 72 hrs relative to control
Schistosoma japonicum [37] = assay: Antischistosomal activity against adult Schistosoma japonicum assessed as worm survival at 15 uM after 72 hrs relative to control
Schistosoma japonicum [38] = assay: Antischistosomal activity against adult Schistosoma japonicum assessed as worm survival at 15 uM after 48 hrs relative to control

O=C(C1CCCCC1)N1CC(=O)N2CCc3ccc(O)cc3C2C1 (configuration not stated)
Activity (Schistosoma japonicum [1]): 40.2% | survival at 25 µM (Schistosoma japonicum [2]): 0% | survival at 10 µM (Schistosoma japonicum [3]): 0% | survival at 10 µM (Schistosoma japonicum [4]): 20% | survival at 5 µM (Schistosoma japonicum [5]): 80% | survival at 50 µM (Schistosoma japonicum [6]): 0% | survival at 15 µM (Schistosoma japonicum [7]): 0% | survival at 5 µM (Schistosoma japonicum [8]): 27.3% | survival at 5 µM (Schistosoma japonicum [9]): 80% | survival at 50 µM (Schistosoma japonicum [10]): 0% | survival at 10 µM (Schistosoma japonicum [11]): 0% | survival at 10 µM (Schistosoma japonicum [12]): 20% | survival at 5 µM (Schistosoma japonicum [13]): 27.3% | survival at 50 µM (Schistosoma japonicum [14]): 0% | survival at 50 µM (Schistosoma japonicum [15]): 0% | survival at 10 µM (Schistosoma japonicum [16]): 54.5% | survival at 25 µM (Schistosoma japonicum [17]): 0% | survival at 15 µM (Schistosoma japonicum [18]): 0% | Activity (Schistosoma japonicum [19]): 16.1% | survival at 5 µM (Schistosoma japonicum [20]): 60% | survival at 10 µM (Schistosoma japonicum [21]): 45.5% | survival at 50 µM (Schistosoma japonicum [22]): 0% | survival at 25 µM (Schistosoma japonicum [23]): 0% | survival at 5 µM (Schistosoma japonicum [24]): 0% | survival at 15 µM (Schistosoma japonicum [25]): 0% | survival at 50 µM (Schistosoma japonicum [26]): 0%

C[C@H]1[C@@H](OC(=O)CCC(=O)Nc2ccc3c(c2)C2CN(C(=O)C4CCCCC4)CC(=O)N2CC3)O[C@@H]2O[C@@]3(C)CC[C@H]4[C@H](C)CC[C@@H]1[C@@]24OO3 (some centres not stated)
Activity (Schistosoma japonicum [1]): 41.8% | survival at 20 µM (Schistosoma japonicum [27]): 0% | survival at 25 µM (Schistosoma japonicum [2]): 0% | survival at 10 µM (Schistosoma japonicum [3]): 100% | survival at 10 µM (Schistosoma japonicum [4]): 100% | survival at 50 µM (Schistosoma japonicum [6]): 0% | survival at 5 µM (Schistosoma japonicum [8]): 9.1% | survival at 20 µM (Schistosoma japonicum [28]): 11.1% | survival at 20 µM (Schistosoma japonicum [29]): 0% | survival at 20 µM (Schistosoma japonicum [30]): 0% | survival at 50 µM (Schistosoma japonicum [10]): 0% | survival at 15 µM (Schistosoma japonicum [31]): 0% | survival at 10 µM (Schistosoma japonicum [11]): 9.1% | survival at 25 µM (Schistosoma japonicum [32]): 0% | survival at 10 µM (Schistosoma japonicum [12]): 100% | survival at 5 µM (Schistosoma japonicum [13]): 9.1% | survival at 20 µM (Schistosoma japonicum [33]): 0% | survival at 50 µM (Schistosoma japonicum [14]): 0% | survival at 25 µM (Schistosoma japonicum [34]): 0% | survival at 25 µM (Schistosoma japonicum [35]): 0% | survival at 50 µM (Schistosoma japonicum [15]): 0% | survival at 10 µM (Schistosoma japonicum [16]): 54.5% | survival at 25 µM (Schistosoma japonicum [17]): 0% | Activity (Schistosoma japonicum [19]): 3.8% | survival at 10 µM (Schistosoma japonicum [21]): 45.5% | survival at 50 µM (Schistosoma japonicum [22]): 0% | survival at 25 µM (Schistosoma japonicum [23]): 0% | survival at 5 µM (Schistosoma japonicum [24]): 9.1% | survival at 20 µM (Schistosoma japonicum [36]): 0% | survival at 15 µM (Schistosoma japonicum [37]): 40% | survival at 50 µM (Schistosoma japonicum [26]): 0% | survival at 15 µM (Schistosoma japonicum [38]): 60%

C[C@H]1[C@@H](OC(=O)CCC(=O)Oc2ccc3c(c2)C2CN(C(=O)C4CCCCC4)CC(=O)N2CC3)O[C@@H]2O[C@@]3(C)CC[C@H]4[C@H](C)CC[C@@H]1[C@@]24OO3 (some centres not stated)
Activity (Schistosoma japonicum [1]): 56.2% | survival at 20 µM (Schistosoma japonicum [27]): 0% | survival at 25 µM (Schistosoma japonicum [2]): 0% | survival at 50 µM (Schistosoma japonicum [6]): 0% | survival at 15 µM (Schistosoma japonicum [7]): 0% | survival at 20 µM (Schistosoma japonicum [30]): 0% | survival at 50 µM (Schistosoma japonicum [10]): 0% | survival at 15 µM (Schistosoma japonicum [31]): 0% | survival at 10 µM (Schistosoma japonicum [11]): 16.7% | survival at 50 µM (Schistosoma japonicum [14]): 0% | survival at 50 µM (Schistosoma japonicum [15]): 0% | survival at 10 µM (Schistosoma japonicum [16]): 33.3% | survival at 25 µM (Schistosoma japonicum [17]): 0% | survival at 15 µM (Schistosoma japonicum [18]): 0% | Activity (Schistosoma japonicum [19]): 70.3% | survival at 10 µM (Schistosoma japonicum [21]): 33.3% | survival at 50 µM (Schistosoma japonicum [22]): 0% | survival at 25 µM (Schistosoma japonicum [23]): 0% | survival at 20 µM (Schistosoma japonicum [36]): 0% | survival at 15 µM (Schistosoma japonicum [37]): 0% | survival at 15 µM (Schistosoma japonicum [25]): 0% | survival at 50 µM (Schistosoma japonicum [26]): 0% | survival at 15 µM (Schistosoma japonicum [38]): 0%

C[C@H]1[C@@H](CC(=O)Nc2ccc3c(c2)C2CN(C(=O)C4CCCCC4)CC(=O)N2CC3)O[C@@H]2O[C@@]3(C)CC[C@H]4[C@H](C)CC[C@@H]1[C@@]24OO3 (some centres not stated)
survival at 50 µM (Schistosoma japonicum [6]): 80% | survival at 50 µM (Schistosoma japonicum [15]): 100% | survival at 50 µM (Schistosoma japonicum [26]): 20%

C[C@H]1[C@@H](CC(=O)Oc2ccc3c(c2)C2CN(C(=O)C4CCCCC4)CC(=O)N2CC3)O[C@@H]2O[C@@]3(C)CC[C@H]4[C@H](C)CC[C@@H]1[C@@]24OO3 (some centres not stated)
Activity (Schistosoma japonicum [1]): 49.6% | survival at 25 µM (Schistosoma japonicum [2]): 0% | survival at 10 µM (Schistosoma japonicum [3]): 100% | survival at 10 µM (Schistosoma japonicum [4]): 80% | survival at 5 µM (Schistosoma japonicum [5]): 20% | survival at 50 µM (Schistosoma japonicum [6]): 0% | survival at 15 µM (Schistosoma japonicum [7]): 28.6% | survival at 5 µM (Schistosoma japonicum [9]): 40% | survival at 50 µM (Schistosoma japonicum [10]): 0% | survival at 25 µM (Schistosoma japonicum [32]): 0% | survival at 10 µM (Schistosoma japonicum [12]): 0% | survival at 50 µM (Schistosoma japonicum [14]): 0% | survival at 25 µM (Schistosoma japonicum [34]): 25% | survival at 25 µM (Schistosoma japonicum [35]): 28.6% | survival at 50 µM (Schistosoma japonicum [15]): 0% | survival at 25 µM (Schistosoma japonicum [17]): 0% | survival at 15 µM (Schistosoma japonicum [18]): 28.6% | Activity (Schistosoma japonicum [19]): 20.5% | survival at 5 µM (Schistosoma japonicum [20]): 0% | survival at 50 µM (Schistosoma japonicum [22]): 14.3% | survival at 25 µM (Schistosoma japonicum [23]): 40% | survival at 15 µM (Schistosoma japonicum [25]): 28.6% | survival at 50 µM (Schistosoma japonicum [26]): 0%
